Results from PubChem BioAssay (NCI).
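Method: 48-hour compound exposure of cells in 96-well plates, five concentrations, linear interpolation of endpoints. The concentration for 50% growth inhibition is given as GI50. TGI: concentration producing complete growth inhibition.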

Tests used:
Experiment in all cases: NCI tumour cell line growth inhibition, 48 h
ACHN renal = tested on: ACHN renal
CAKI-1 renal = tested on: CAKI-1 renal
COLO 205 colon = tested on: COLO 205 colon
NCI-H522 lung = tested on: NCI-H522 lung
OVCAR-5 ovarian = tested on: OVCAR-5 ovarian
SN12C renal = tested on: SN12C renal

Row | Structure (SMILES) | GI50 (ACHN renal) [µM] | TGI (ACHN renal) [µM] | GI50 (CAKI-1 renal) [µM] | TGI (CAKI-1 renal) [µM] | GI50 (COLO 205 colon) [µM] | TGI (COLO 205 colon) [µM] | GI50 (NCI-H522 lung) [µM] | TGI (NCI-H522 lung) [µM] | GI50 (OVCAR-5 ovarian) [µM] | TGI (OVCAR-5 ovarian) [µM] | GI50 (SN12C renal) [µM] | TGI (SN12C renal) [µM]
1 | CCCCCCCCCCCCCCCCN1CC2CCCCC2C1 (centres undefined) | 15.7 | 31.1 | 2.49 | 8.91 | 4.37 | 17.7 | 4.4 | 17 | 5.33 | 18.8 | 8.26 | 21.3
2 | CN(C)CCNc1c2c(c(NCCN(C)C)c3[nH]ccc13)C(=O)c1ccccc1C2=O | 0.476 | 5.56 | 2.56 | 6.72 | 4.32 | > 100 | 3.3 | > 100 | 2.1 | 13 | 0.519 | 2.61
3 | COc1ccc(-c2c3c(N)nc(-c4ccncc4)nc3nc3c2c(C)nn3-c2ccccc2)cc1 | 4.58 | > 100 | > 100 | > 100 | 6.12 | > 100 | 4.94 | 53.5 | 4.03 | > 100 | 44.4 | > 100
4 | O=C1/C(=C\c2c[nH]c3ccccc23)c2ccccc2N1c1c(Cl)cccc1Cl | 2.4 | 10.1 | 1.43 | 4.53 | 1.8 | 3.27 | 1.81 | 3.56 |  |  | 1.53 | 2.89
5 | COc1ccc(-c2n/c(=C\c3c(O)[nH]c4ccc(OC)cc34)cc3c2=Nc2ccccc2-3)cc1 | 26.7 | > 100 | 8.32 | 45 | 10.7 | 56.8 |  |  | 44.5 | > 100 | 4 | > 100
6 | COc1ccc(-c2nc3sc4c(c3c(=O)[nH]2)CCCCCC4)cc1 | 2.3 | > 33.2 | > 33.2 | > 33.2 | 2.37 | > 33.2 | 2.55 | > 33.2 | > 33.2 | > 33.2 | > 33.2 | > 33.2
7 | CCCC(C)c1cc(Cc2cc(Cl)cc(Cl)c2O)c(O)c(Cc2cc(Cl)cc(Cl)c2O)c1 (centres undefined) | 1.99 | 10.9 | 1.23 | 10.4 | 1.61 | 5.7 | 0.4 | 6.6 | 4.05 | 15 | 0.415 | 10.4
8 | COc1ccc(-c2csc(N(C(=O)N3CCN(c4cc5c(cc4F)c(=O)c(C(=O)O)cn5C4CC4)CC3)c3ccccc3)n2)cc1 | 1.85 | 5.09 | 2.46 | 8.76 | 3 | 9.22 | 2.16 | 6.8 | 3.29 | > 100 | 2.95 | > 100
9 | CCCCCCCCCCC(C(=O)O)C1(C(=O)O)CCC(=O)O1 (centres undefined) |  | > 100 |  | > 100 |  | > 100 |  | > 100 |  | > 100 |  | > 100
10 | CN1CCC(n2cnc(-c3ccc(F)cc3)c2-c2ccnc(NCCO)n2)CC1 | 12.1 | > 25 | > 17.9 | > 25 | 8.86 | > 25 | > 17.7 | > 25 | > 25 | > 25 | > 18.9 | > 25
11 | COc1cc(/C=C/c2cc(O)c3cc(C(C)=O)c(=O)oc3c2)cc2c1O[C@]1(C)CC[C@@H](O)C(C)(C)[C@H]1C2 | > 22.9 | > 74 |  | > 39.4 | > 27.5 | > 59.8 | > 25.9 | > 53 | > 36.5 | > 86 | > 33 | > 68
12 | Cc1ccccc1[P+](Cc1ccccc1)(c1ccccc1)c1ccccc1 | 8.3 | > 100 | 12.1 | > 100 | 1.51 | 4 | 2.09 | 10.5 | 2.46 | > 100 | 2.85 | 90.3
13 | O=C(NCCO)Nc1ccc(-c2nc(N3CCOCC3)c3cccn3n2)cc1 | 0.0614 | > 100 | 1.16 | > 100 | 0.117 | 9.08 | 0.0833 | > 100 | 0.138 | 20.7 | 0.567 | > 100
14 | COc1cccc(-n2ncc3c(N/N=C/c4ccc(C(=O)NCCN(C)C)cc4)ncnc32)c1 | 1.08 | 4.86 | 1.27 | 5.48 | 0.605 | 3.2 | 2.04 | 5.96 | 4.53 | 8.61 | 3.01 | 6.99
15 | COc1cc2c(c(OC)c1)C1c3ccccc3NC(=O)N1CC2 (centres undefined) | 5.48 | > 100 | 4.62 | > 100 | 2.82 | 8.25 | 2.97 | 11.8 | 4.96 | > 100 | 7.27 | > 100
16 | Cc1ccc(N=Nc2c(O)c(C(=O)O)cc3ccccc23)cc1C |  | > 100 |  | > 100 |  | > 100 |  | > 100 |  | > 100 |  | 
17 | OC(c1cc(-c2ccccc2)nc2ccc(Cl)cc12)C1CCCCN1 (centres undefined) | 1.64 | 3.21 | 2.1 | 5.9 |  |  | 2.11 | 4.53 | 1.84 | 4.3 | 3.14 | 10.6
18 | O=c1cc(-c2ccccc2)[nH]c2ccccc12 | 0.858 | > 100 | 0.825 | > 100 | 0.45 |  | 0.439 | > 46.7 |  | > 100 | 1.73 | > 100
19 | Oc1cccc2ccc(N/N=C/c3cc(CN4CCCCC4)c(O)c4ncccc34)nc12 | 0.0344 | 1.19 | 0.309 | 2.14 | 0.0651 | 1.36 | 0.0314 | 1.21 | 0.0639 | 13 | 0.0931 | 12.9
20 | CCc1nccc2c1nc(-c1nonc1N)n2CC | > 23.2 | > 25 | 12.2 | > 25 | > 25 | > 25 | > 17.7 | > 25 | > 17.8 | > 25 | > 25 | > 25

Row | Structure (SMILES) | GI50 (ACHN renal) [µM] | TGI (ACHN renal) [µM] | GI50 (CAKI-1 renal) [µM] | TGI (CAKI-1 renal) [µM] | GI50 (COLO 205 colon) [µM] | TGI (COLO 205 colon) [µM] | GI50 (NCI-H522 lung) [µM] | TGI (NCI-H522 lung) [µM] | GI50 (OVCAR-5 ovarian) [µM] | TGI (OVCAR-5 ovarian) [µM] | GI50 (SN12C renal) [µM] | TGI (SN12C renal) [µM]
21 | O=C1CC(c2ccc(O)cc2)C2(O1)C(=O)OC(C(O)CO)C2O (centres undefined) |  | > 100 |  | > 100 |  | > 100 |  |  |  | > 100 |  | > 100
22 | CCCCCCCCN=C(N)c1ccc(N2CCN(c3ccc(C(N)=NCCCCCCCC)cc3)CC2)cc1 | 2.37 | 12.7 | 1.28 | 3.68 | 1.49 | 19.2 | 2.27 | > 50 | 3.27 | 14.4 | 1.09 | 3.05
23 | COc1ccc2sc3c(NCCCN(C)C)nc4ccccc4c3c(=O)c2c1 | 1.56 | 2.9 | 1.6 | 2.95 | 1.58 | 3.52 | 1.78 | 3.46 | 1.76 | 3.23 | 1.71 | 3.2
24 | CC[C@@H](C(=O)O)C1CC[C@H](C)C([C@@H](C)[C@H](O)[C@H](C)C(=O)[C@H](CC)C2O[C@]3(C=C[C@@H](O)[C@]4(CC[C@@](C)(C5CC[C@](O)(CC)[C@H](C)O5)O4)O3)[C@H](C)C[C@@H]2C)O1 (some centres undefined) | 0.504 | 27.5 | 0.19 | 18.2 | 0.224 | 5.2 | 0.0785 | 1.78 | 2.48 | 50.8 | 0.128 | 28.7
25 | COc1ccc(/C(C#N)=C/c2ccccc2OC)cc1 | 32.1 | > 100 | 6.49 | > 100 | 5.96 | 32.4 | 4.85 | 32.3 | 55.4 | > 100 | 21.1 | > 100
26 | COc1ccc2c(c1)/C(=C\c1c(C)nc3sccn13)C(=O)N2 |  | 69.4 | < 0.0485 | > 100 | < 0.0506 |  | < 0.01 |  | 7.81 | > 100 | 0.0889 | > 91.7
27 | COc1ccc(/C=C2\CCCC3=C2N=C2SC(C)=NN2C3c2ccc(OC)c(OC)c2)cc1OC (centres undefined) | 4.2 | 33.3 | 4.82 | > 100 | 5.24 | > 100 | 10.8 | 57.8 | 36 | > 100 | 14 | > 100
28 | COc1ccc(/C=C(/C#N)C(N)=O)cc1OC |  | > 100 |  | > 100 |  | > 100 |  | > 100 |  | > 100 |  | > 100
29 | Nc1nc2c(c3ncncc13)C(c1cccc(C(F)(F)F)c1)Cc1ncncc1-2 (centres undefined) | 7.06 | 41.6 | 4.29 | > 100 | 3.26 | 13.8 | 4.66 | 26.1 | 11.3 | 31.4 | 7.66 | 49.2
30 | CC1OC(O[C@@H]2OC=C(C=O)[C@@]3(O)CC[C@H](C)[C@@H]23)C(O)C(O)C1O (some centres undefined) |  | > 100 |  | > 100 |  | > 100 |  | > 100 |  | > 100 |  | > 100
31 | O=C(/C=C/c1ccccc1)c1cc(Br)ccc1O |  | 28.7 |  | 31.1 |  | 33.3 |  | 28.4 |  | 46.3 |  | 29.7
32 | CC#C[C@]1(O)CC[C@H]2[C@@H]3CCC4=CC(=O)CCC4=C3[C@@H](c3ccc4c(c3)OCO4)C[C@@]21C | 47.4 | 633 |  |  | 118 | 291 | 110 | 460 | 236 | > 1000 | 83.2 | 464
33 | C[C@@H]1C[C@H]2CC[C@H](O2)[C@H](C)C(=O)O[C@@H](C)C[C@@H]2CC[C@@H](O2)[C@@H](C)C(=O)O[C@H](C)C[C@H]2CC[C@H](O2)[C@H](C)C(=O)O[C@@H](C)C[C@@H]2CC[C@@H](O2)[C@@H](C)C(=O)O1 |  | 2.45 |  | 12.8 |  | 0.33 |  | 0.68 |  | > 100 |  | 18.9
34 | Nc1ccccc1C#C/C=C\C#Cc1cccs1 | 15.9 | 58.3 | 3.75 | 21 | 18.2 | 78.3 | 6.84 | 31.6 | 15.2 | 32.7 | 4.62 | 16.7
35 | COc1ccc(-c2ccc(/C=N/n3c(COc4ccc(Cl)cc4Cl)nn(CN4CCOCC4)c3=S)o2)c([N+](=O)[O-])c1 | 36.1 | > 100 | 22.7 | 67.4 | 30.8 | > 100 | 45.1 | > 100 | 38.8 | > 100 | 24.5 | 67.7
36 | O=C1c2cccnc2C(=O)c2nc3cc(N4CCN(C5CC5)CC4)ccc3nc21 | 0.6 | 4.34 | 0.439 | 3.05 | 0.558 | 2.34 | 0.238 | 1.36 | 1.34 | 3.07 | 0.519 | 1.88
37 | Cn1cccc1-c1cc(-c2cccs2)nc(N)c1C#N | > 100 | > 100 | > 100 | > 100 | > 100 | > 100 | > 100 | > 100 | > 100 | > 100 | > 100 | > 100
38 | N#Cc1c(N2CCCC2)[nH]c(=O)c(C(c2c(Cl)cccc2Cl)c2c(O)c(C#N)c(N3CCCC3)[nH]c2=O)c1O | 16.8 | 34.1 | 10.7 | 24 | 5.11 | 17.4 | 9.74 | 35.1 | 19.2 | 38.3 | 13.6 | 33.9
39 | CCCCC(CC)CN=C(N)NC(N)=NCCCCCCN=C(N)NC(N)=NCC(CC)CCCC (centres undefined) | 2.85 | 7.74 | 2.93 | 10.3 | 1.82 | 3.31 |  |  |  |  | 1.52 | 4.39
40 | O=C(O)/C=C\C(=O)N1C/C(=C\c2ccccc2Cl)C(=O)/C(=C/c2ccccc2Cl)C1 |  |  | 4.29 | 15 | 2.27 | 4.33 | 1.96 | 4.1 |  |  | 2.93 | 9.31
